Data set [1] is described as follows: logP by HPLC on reverse-phase column (C 18), acidic range. The data set is classed as physicochemical. The settings on record: for logP: HPLC reverse-phase column (C 18), 43° C., acidic range: 0.1% aqueous phosphoric acid, acetonitrile; data labelled a); for logP a): acidic range: 0.1% aqueous phosphoric acid/acetonitrile gradient, HPLC C 18, 43° C. On the procedure:
(§1) The logP values given in Table 1 were determined in accordance with EE Directive 79/831 Annex V.A8 by HPLC (High Performance Liquid Chromatography) using a reverse-phase column (C 18). Temperature: 43° C. (a) Mobile phases for the determination in the acidic range: 0.1% aqueous phosphoric acid, acetonitrile; linear gradient from 10% acetonitrile to 90% acetonitrile—the corresponding data in Table 1 are labelled ^a). Calibration was carried out using unbranched alkan-2-ones (with from 3 to 16 carbon atoms) whose logP values are known (determination of the logP values by the retention times using linear interpolation between two successive alkanones). The logP values given in Table 3 were determined in accordance with EEC Directive 79/831 Annex V.A8 by HPLC (High Performance Liquid Chromatography) using a reverse-phase column (C 18). Temperature: 43° C. (a) Mobile phases for the determination in the acidic range: 0.1% aqueous phosphoric acid, acetonitrile; linear gradient from 10% acetonitrile to 90% acetonitrile—the corresponding data in Table 3 are labelled ^a). Calibration was carried out using unbranched alkan-2-ones (with from 3 to 16 carbon atoms) whose logP values are known (determination of the logP values by the retention times using linear interpolation between two successive alkanones).

Data set [2] is described as follows: logP by HPLC on reverse-phase column (C 18), neutral range. The format is physicochemical. The note with it: neutral range: 0.01 molar aqueous phosphate buffer/acetonitrile gradient, HPLC C 18, 43° C. As to the method: as §1, with “(b)” for “(a)”, “neutral” for “acidic”, “0.01 molar” for “0.1%”, “phosphate buffer solution,” for “phosphoric acid,”, “^b).” for “^a).”

Data set [3] concerns weeds. The experiment in a line: Pre-emergence test, action against weeds. The data set is classed as in vivo. The note with it: soil sprayed about 24 hours after sowing, rated after three weeks. As to the method: (§2) Pre-emergence Test [table] To produce a suitable preparation of active compound, 1 part by weight of active compound is mixed with the stated amount of solvent, the stated amount of emulsifier is added and the concentrate is diluted with water to the desired concentration. Seeds of the test plants are sown in normal soil. After about 24 hours, the soil is sprayed with the preparation of active compound such that the particular amount of active compound desired is applied per unit area. The concentration of the spray liquor is chosen so that the particular amount of active compound desired is applied in 1000 liters of water per hectare. After three weeks, the degree of damage to the plants is rated in % damage in comparison to the development of the untreated control. The figures denote: [table]

Data set [4] concerns crop plants, such as, for example, maize. Kind of data set: Pre-emergence test, tolerance by crop plants. The format is in vivo. The note with it: rated after three weeks. On the procedure:
as §2

The test system of data set [5] is weeds. Kind of data set: Post-emergence test, activity against weeds. The format is in vivo. The settings on record: test plants 5-15 cm sprayed, rated after three weeks. On the procedure: (§3) Post-emergence Test [table] To produce a suitable preparation of active compound, 1 part by weight of active compound is mixed with the stated amount of solvent, the stated amount of emulsifier is added and the concentrate is diluted with water to the desired concentration. Test plants which have a height of 5-15 cm are sprayed with the preparation of active compound such that the particular amounts of active compound desired are applied per unit area. The concentration of the spray liquor is chosen so that the particular amounts of active compound desired are applied in 1000 l of water/ha After three weeks, the degree of damage to the plants is rated in % damage in comparison to the development of the untreated control. The figures denote: [table]

For data set [6], the system named is crop plants, such as, for example, wheat. Kind of data set: Post-emergence test, tolerance by crop plants. The note with it: rated after three weeks. The data set is classed as in vivo. On the procedure:
as §3

Here are results for 12 compounds from US6838415B1, “Substituted benzoylisoxazoles and the use thereof as herbicides” (Bayer Aktiengesellschaft, priority 1999, dated 2005).

For `CSc1nn(Cc2cc(C(F)(F)F)ccc2C(=O)c2cnoc2C2CC2)c(=O)n1C` [Example 2, (5-cyclopropyl-isoxazol-4-yl)-[2-(4-methyl-3-methylthio-5-oxo-4,5-dihydro-[1,2,4]-triazol-1-yl-methyl)-4-trifluoromethyl-phenyl]-methanone], in data set [1] (reverse-phase HPLC column (C 18), pH=2.3, read-out: logP (determined at pH=2.3)), the chromatographic logP is 2.94.

Turning to `CCOC(=O)c1ccc(C(F)(F)F)cc1Cn1nc(OC)n(C2CC2)c1=O` [VII-91], in data set [1], the logP result is given as “logP = 3.08^a)”. Turning to `COc1c(C(=O)c2cnoc2C2CC2)ccc(Cl)c1CN1CCN(C)C1=O` [ID-2], the “logP a)” value in data set [1] was “logP = 2.46^a)”. Turning to `CN1CCN(Cc2c(Cl)ccc(C(=O)c3cnoc3C3CC3)c2Cl)C1=O` [ID-1], the “logP a)” value in data set [1] is “logP = 2.48^a)”.

As to `COC(=O)c1ccc(C(F)(F)F)cc1CN1C(=O)c2ccccc2S1(=O)=O` [VII-122], the logP entry in data set [1] is listed as “logP = 3.29^a)”. Turning to `CCOn1c(CC)nn(Cc2cc(Br)ccc2C(=O)c2c(C(=O)OC)noc2C2CC2)c1=O` [Example 4], in data set [2], the “logP b)” value is “(IA) logP = 3.36^b)”. Also, the “action against weeds (degree of damage)” value in data set [3] was “strong action against weeds”. Also, the “tolerance by crop plants” value in data set [4] and in data set [6] was “tolerated well” throughout. For the same compound, in data set [5], the “activity against weeds (degree of damage)” value is “very strong activity against weeds”. As for `COC(=O)c1noc(C2CC2)c1C(=O)c1ccc(C(F)(F)F)cc1Cn1nc(SC)n(C)c1=O` [Example 7], the “logP a)” value in data set [1] is given as “(IA) logP = 3.22^a)”. Regarding `COC(=O)c1ccc(C(F)(F)F)cc1Cn1nnc2ccccc2c1=O` [VII-123], the logP entry in data set [1] is “logP = 3.26^a)”. Regarding `COC(=O)c1ccc(C(F)(F)F)cc1Cn1c(=O)oc2ccccc21` [VII-121], in data set [1], the logP result is recorded as “logP = 3.37^a)”.

Take `CCOc1nn(Cc2cc(C(F)(F)F)ccc2C(=O)c2c(C(=O)OC)noc2C2CC2)c(=O)n1C` [Example 6]: the “logP a)” value in data set [1] is recorded as “(IA) logP = 3.32^a)”. As to `CCOc1nn(Cc2cc(Br)ccc2C(=O)c2c(C(=O)OC)noc2C2CC2)c(=O)n1C` [Example 3], the “logP a)” value in data set [1] is given as “(IA) logP = 3.15^a)”. For the same compound, in data set [3], the “action against weeds (degree of damage)” value is given as “strong action against weeds”. Also, the “tolerance by crop plants” value in data set [4] and in data set [6] was “tolerated well” each time. Further, the “activity against weeds (degree of damage)” value in data set [5] is reported as “very strong activity against weeds”. Consider `COC(=O)c1noc(C2CC2)c1C(=O)c1ccc(Br)cc1Cn1nc(C(F)(F)F)n(C)c1=O` [Example 5], for which the “logP a)” value in data set [1] is “(IA) logP = 3.50^a)”.
